Values quoted from earlier work in patent publication US20210324434A1, “METHOD FOR PRODUCING RARE SUGAR-CONTAINING COMPOSITION AND RARE SUGAR-CONTAINING COMPOSITION” (NATIONAL UNIVERSITY CORPORATION KAGAWA UNIVERSITY, priority 2018, published 2021).

Legend:
[1] = relative to sugar
[2] = already known

SMILES	sweetness intensity, % of that of sugar [1]	result of an acute oral toxicity test [2]
O=C(CO)[C@@H](O)[C@H](O)[C@H](O)CO [D-fructose]	about 170%	–
O=C[C@H](O)[C@@H](O)[C@H](O)[C@H](O)CO [D-glucose]	about 70%	–
O=C(CO)[C@H](O)[C@H](O)[C@H](O)CO [D-psicose]	about 70%	≥ 5,000 mg/kg
